Experiments:
[1] = test system: panel of commensal bacterial strains; assay: MIC against panel of nine gut commensal bacteria; details: read-out: MICs against gut commensal panel
[2] = test system: conventional C57BL/6 mice; assay: Serum TMAO in conventional mice after inhibitor treatment; format: in vivo, Mus musculus C57BL/6
Experimental: In a biosafety cabinet, a 300 mg/mL stock of sterile inhibitor in filter-sterilized DMSO was prepared. After this preparation, a working solution of 3 mg/mL of the inhibitor stock in sterile 1% hydroxyethyl cellulose/1% polysorbate 80 was prepared within 4 days of gavaging the mice and stored at room temperature. A low dose of the inhibitor was also prepared, using a working solution of 0.3 mg/mL of the inhibitor stock in sterile 1% hydroxyethyl cellulose/1% polysorbate 80. The vehicle was prepared in the same way with DMSO without inhibitor. […] All mice were administered by gavage with 3 mg/kg or 30 mg/kg of the inhibitor once a day (between 6 and 8 a.m.) for three consecutive days. A fecal sample was collected before the first gavage. At sacrifice, tissues collected were blood, cecal contents, a fecal pellet, proximal colon, distal small intestine, liver, and kidney. Mice were anesthetized with isoflurane and underwent cardiac puncture for a terminal blood draw, followed by cervical dislocation. Tissues were snap-frozen in liquid nitrogen. Blood was spun down at 8,000 × g for 8 min at room temperature; the resulting serum layer was removed and snap-frozen. […] […] was used for peak quantification, and internal standards were utilized as a comparison to calculate plasma concentrations. Statistical significance was calculated using an unpaired t-test.

E. coli MS 200-1 = assay: TMA inhibition in bacterial whole cells (LC–MS/MS of d9-TMA from d9-choline); format: cell-based, Escherichia coli MS 200-1; details: Escherichia coli, MS2001, 1.25 h; 1 mM d9-choline in PBS, 75 min, 37°C, anaerobic
Experimental: For TMA inhibition assays, E. coli and P. mirabilis were grown in NCE medium supplemented with 20 mM choline chloride, A. hydrogenalis was grown in MEGA medium supplemented with 3 mM choline chloride, and C. sporogenes was grown in BHI medium supplemented with 20 mM of choline chloride to induce expression of the cut gene cluster. For MIC assays, all bacteria strains were grown in MEGA medium.
Compounds were stored as 10 mM DMSO stocks at –20°C and diluted in DMSO to prepare varying concentrations of inhibitors for testing. Bacteria were grown anaerobically overnight in media supplemented with choline as described above. Cells were pelleted and resuspended in PBS, and d9-choline chloride was added to a final concentration of 1 mM. The final OD600 of the PBS cell resuspensions is as follows: 0.4 (E. coli), 0.15–0.2 (P. mirabilis), 0.2 (C. sporogenes), and 0.4 (A. hydrogenalis). The resuspended cells were added to 96-well plates containing inhibitors (final concentration of 1% DMSO, with final inhibitor concentrations ranging between 0 and 325 µM). The plates were sealed and incubated for 75 min (or 90 min for P. mirabilis) at 37°C. Following incubation, the plates were removed from the anaerobic chamber and analyzed immediately or kept at –20°C until LC–MS/MS analysis. Each inhibitor concentration was tested in triplicate. EC50 values were calculated with GraphPad Prism by fitting the log(inhibitor) vs response—Variable slope (four-parameter) model for non-linear regression.
Samples were kept frozen until analysis and kept cold on ice during handling due to the volatility of TMA. Bacterial cell resuspensions in PBS were diluted 100-fold in LCMS-grade acetonitrile with 0.1% formic acid to lyse cells, precipitate proteins, and extract metabolites. Samples were centrifuged at 4,000 rpm for 10 min at 4°C to pellet proteins. The supernatants were then further diluted 20-fold in LCMS-grade acetonitrile with 0.1% formic acid, and the resulting solution was analyzed by LC–MS/MS.
LC–MS/MS analysis was performed on an Agilent 1290/6470 Triple Quadrupole LC–MS instrument (Agilent Technologies) using electrospray ionization. The mass spectrometer was operated in multiple reaction monitoring (MRM) mode with positive ionization monitoring. The precursor–product ion pairs used in MRM mode were as follows: m/z 69.1m/z → 49.1 (d9-TMA) and m/z 113.2 m/z → 69.1 (d9-choline). The capillary voltage was set to 4.0 kV, and the fragmentor voltage was set to 30 V (d9-TMA) and 115 V (d9-choline). The collision energy for the precursor–product ion pairs was set to 29 V (d9-TMA) and 21 V (d9-choline). MS^1 resolution was set to wide and MS^2 resolution to unit. The drying gas temperature was maintained at 250°C, with a flow rate of 11 L/min and a nebulizer pressure of 45 psi. The time filter width used was 0.07 min. The injection volume of all samples was 1 μL. Samples were injected onto InfinityLab Poroshell 120 (Agilent) HILIC columns (2.7 μm, 100 mm × 2.1 mm, 100 Å) preceded by InfinityLab Poroshell 120 HILIC guard columns (2.1 mm, 1.9µm UHPLC guard). The LC conditions on the binary pump were as follows: a gradient of 5–35% A increasing over 1.95 min (1.2 mL/min), a gradient of 35–5% A decreasing over 0.05 min (1.6 mL/min), and held at 5% A for 0.5 min (2 mL/min). […] Solvent A was 10 mM ammonium formate with 0.1% formic acid, and solvent B was acetonitrile with 0.1% formic acid. Data analysis was performed with Mass Hunter Workstation Data Acquisition and Qualitative Analysis software (Agilent Technologies).

## Cc1ccc(-c2cc(C(=O)NCCCCCN3CCCCCC3)c(C)[nH]2)cc1C [Compound 45]
[1]
  MIC: > 200 µM
[2]; 30 mg/kg oral gavage daily for 3 days, 1% choline diet, P = 0.027
  Serum TMAO level relative to vehicle treatment: about 60 % of vehicle treatment
[2]; 30 mg/kg, n = 6, P = 0.027
  Decrease of serum TMAO levels: ~ 40%

## Cc1ccc(-c2cc(C(=O)NCCCN3CCc4ccccc4C3)c(C)[nH]2)cc1C [Compound 5]
E. coli MS 200-1
  EC50: 12 µM

From paper PMC12977544, “Phenotypic high-throughput screening identifies modulators of gut microbial choline metabolism” (mBio, 2026)
